Assay results from US20230312564A1, “AROMATIC RING-LACTAM COMPOUND, PREPARATION METHOD THEREFOR AND USE THEREOF” (SHANGHAI RINGENE BIOPHARMA CO., LTD., priority 2020, published 2023).

Key:
[1] = test system: Colo-205 transplanted tumor; assay: Growth inhibition of nude mice Colo-205 transplanted tumor; format: in vivo
[2] = Liver microsomal metabolic stability, dog; format: in vitro ADME; settings: liver microsomes, 0.5 mg/mL microsomes, 1 μM compound, NADPH, read-out: Liver microsomal stability T1/2
Description: (§1) The reaction was stopped with tinidazole-containing acetonitrile at 0 min, 5 min, 10 min and 30 min, respectively. After vortexing for 10 min and centrifuging at 15,000 rmp for 10 min, 50 μL of the supernatant was injected into a 96-well plate. The metabolic stability of the compound was calculated by determining the relative reduction of the drug, calculated as half-life T1/2.

CYP2C8 = CYP2C8 (Homo sapiens, UniProt P11712); assay: Direct inhibition test (DI test) in human liver microsomes, CYP2C8; format: in vitro ADME
[3] = Liver microsomal metabolic stability, human; format: in vitro ADME; settings: liver microsomes, 0.5 mg/mL microsomes, 1 μM compound, NADPH, read-out: Liver microsomal stability T1/2
Description: as §1

Colo-205 cells = assay: Colo-205 tumor cell proliferation, CCK-8, 72 hours; format: cell-based
CYP1A2 = biological target: T1, CYP1A2 (Homo sapiens, UniProt P05177); assay: Direct inhibition test (DI test) in human liver microsomes, CYP1A2
T1 sequence (P05177 1-516): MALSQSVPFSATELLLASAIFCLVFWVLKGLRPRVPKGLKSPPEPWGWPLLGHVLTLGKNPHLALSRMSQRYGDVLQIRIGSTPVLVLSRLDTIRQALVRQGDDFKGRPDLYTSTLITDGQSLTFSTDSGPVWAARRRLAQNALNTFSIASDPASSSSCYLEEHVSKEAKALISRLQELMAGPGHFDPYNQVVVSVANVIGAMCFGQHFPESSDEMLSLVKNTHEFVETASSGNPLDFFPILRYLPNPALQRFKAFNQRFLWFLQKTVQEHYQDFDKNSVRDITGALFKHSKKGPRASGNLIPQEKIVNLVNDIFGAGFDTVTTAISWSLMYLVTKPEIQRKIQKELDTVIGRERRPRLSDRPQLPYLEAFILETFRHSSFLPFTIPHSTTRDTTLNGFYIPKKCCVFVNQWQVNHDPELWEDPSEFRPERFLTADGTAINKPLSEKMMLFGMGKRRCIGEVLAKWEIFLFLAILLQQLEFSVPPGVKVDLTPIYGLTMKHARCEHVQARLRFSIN
Description: (§2) (2) Direct inhibition test (DI test): A system containing 100 μL of human liver microsomes (final concentration of 0.2 mg/mL) was subjected to a direct inhibition incubation, and the system contained NADPH (final concentration of 1 mM), 10 μM compound, positive inhibitor cocktail (10 μM ketoconazole, 10 μM quinidine, 100 μM sulfaphenazole, 10 μM α-naphthoflavone, 1,000 μM tranylcypromine), negative control (BPS of 0.1% DMSO), and mixed probe substrates (10 μM midazolam, 100 μM testosterone, 10 μM dextromethorphan, […], 100 μM phenacetin, 100 μM mephenytoin). After 20 minutes of incubation, the reaction was stopped. The relative activity of the enzyme was calculated by measuring the relative production of metabolites.

CYP2C19 = biological target: T2, CYP2C19 (Homo sapiens, UniProt P33261); assay: Direct inhibition test (DI test) in human liver microsomes, CYP2C19; format: in vitro ADME
T2 construct: A system containing 100 μL of human liver microsomes; from tissue; host or cells: human liver microsomes
Description: as §2

CYP3A4 = biological target: T3, CYP3A4 (Homo sapiens, UniProt P08684); assay: Direct inhibition test (DI test) in human liver microsomes, CYP3A4; format: in vitro ADME
T3 construct: A system containing 100 μL of human liver microsomes; from tissue; host or cells: human liver microsomes
Description: as §2

[4] = Liver microsomal metabolic stability, mouse; format: in vitro ADME; settings: liver microsomes, 0.5 mg/mL microsomes, 1 μM compound, NADPH, read-out: Liver microsomal stability T1/2
Description: as §1

[5] = Liver microsomal metabolic stability, rat; format: in vitro ADME; settings: liver microsomes, 0.5 mg/mL microsomes, 1 μM compound, NADPH, read-out: Liver microsomal stability T1/2
Description: as §1

ERK1/2 kinase = test system: T4, ERK1/2 kinase; assay: ERK1/2 kinase (Carna) inhibitory activity, Caliper mobility shift; format: biochemical
T4 construct: fused on or other part: Carna's ERK products carry a GST tag by vendor knowledge
Procedure, shortened: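 Compounds tested from 10 μM top concentration, 3-fold dilutions to 10 points, in duplicate, in 1× kinase buffer; Caliper mobility-shift readout.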

CYP2D6 = biological target: T5, CYP2D6 (Homo sapiens, UniProt P10635); assay: Direct inhibition test (DI test) in human liver microsomes, CYP2D6; format: in vitro ADME
T5 construct: A system containing 100 μL of human liver microsomes; from tissue; host or cells: human liver microsomes
Description: as §2

[6] = Liver microsomal stability, comparisons in words across species; format: in vitro ADME; settings: different species; versus the comparative compounds
Description: as §1

T3 sequence (P08684 whole entry): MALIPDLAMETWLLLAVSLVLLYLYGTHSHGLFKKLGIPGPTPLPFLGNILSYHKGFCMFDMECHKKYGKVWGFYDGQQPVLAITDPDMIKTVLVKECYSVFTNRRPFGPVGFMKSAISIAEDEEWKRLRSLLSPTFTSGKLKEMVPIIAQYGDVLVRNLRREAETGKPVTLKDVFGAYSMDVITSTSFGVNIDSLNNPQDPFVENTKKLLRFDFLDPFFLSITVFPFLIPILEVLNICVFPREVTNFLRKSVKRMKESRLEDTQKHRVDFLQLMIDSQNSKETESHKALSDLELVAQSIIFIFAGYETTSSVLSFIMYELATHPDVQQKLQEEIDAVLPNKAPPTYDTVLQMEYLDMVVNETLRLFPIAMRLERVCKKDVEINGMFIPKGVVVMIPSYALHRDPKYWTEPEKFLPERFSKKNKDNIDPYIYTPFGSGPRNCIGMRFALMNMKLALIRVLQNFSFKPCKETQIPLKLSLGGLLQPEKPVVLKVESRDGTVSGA
T2 sequence (P33261 whole entry): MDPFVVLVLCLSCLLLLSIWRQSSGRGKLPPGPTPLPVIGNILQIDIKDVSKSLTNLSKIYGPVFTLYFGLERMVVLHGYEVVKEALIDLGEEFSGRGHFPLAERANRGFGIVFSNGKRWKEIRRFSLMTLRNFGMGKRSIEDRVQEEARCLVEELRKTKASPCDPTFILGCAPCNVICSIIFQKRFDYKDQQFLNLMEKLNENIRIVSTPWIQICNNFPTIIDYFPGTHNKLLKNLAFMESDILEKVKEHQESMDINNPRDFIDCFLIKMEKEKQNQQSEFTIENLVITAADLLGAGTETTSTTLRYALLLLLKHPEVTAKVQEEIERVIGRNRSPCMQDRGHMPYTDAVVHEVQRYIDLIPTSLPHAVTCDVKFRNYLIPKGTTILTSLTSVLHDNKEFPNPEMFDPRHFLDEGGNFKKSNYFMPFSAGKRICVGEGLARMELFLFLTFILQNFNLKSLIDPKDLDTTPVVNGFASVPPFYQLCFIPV
T5 sequence (P10635 whole entry): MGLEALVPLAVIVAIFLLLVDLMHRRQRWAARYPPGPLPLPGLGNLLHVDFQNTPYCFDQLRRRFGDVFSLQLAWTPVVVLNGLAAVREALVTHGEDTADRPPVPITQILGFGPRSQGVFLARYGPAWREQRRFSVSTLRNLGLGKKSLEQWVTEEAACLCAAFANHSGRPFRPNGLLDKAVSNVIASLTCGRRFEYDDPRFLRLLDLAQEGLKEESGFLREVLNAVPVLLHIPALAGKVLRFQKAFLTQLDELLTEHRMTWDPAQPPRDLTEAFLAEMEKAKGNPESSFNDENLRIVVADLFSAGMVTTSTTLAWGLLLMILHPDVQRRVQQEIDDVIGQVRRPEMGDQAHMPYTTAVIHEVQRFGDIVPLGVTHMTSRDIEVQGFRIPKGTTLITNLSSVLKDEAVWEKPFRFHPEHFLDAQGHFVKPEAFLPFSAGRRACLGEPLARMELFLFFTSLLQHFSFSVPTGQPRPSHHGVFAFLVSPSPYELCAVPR
Chain of CYP2C8 (P11712 whole entry): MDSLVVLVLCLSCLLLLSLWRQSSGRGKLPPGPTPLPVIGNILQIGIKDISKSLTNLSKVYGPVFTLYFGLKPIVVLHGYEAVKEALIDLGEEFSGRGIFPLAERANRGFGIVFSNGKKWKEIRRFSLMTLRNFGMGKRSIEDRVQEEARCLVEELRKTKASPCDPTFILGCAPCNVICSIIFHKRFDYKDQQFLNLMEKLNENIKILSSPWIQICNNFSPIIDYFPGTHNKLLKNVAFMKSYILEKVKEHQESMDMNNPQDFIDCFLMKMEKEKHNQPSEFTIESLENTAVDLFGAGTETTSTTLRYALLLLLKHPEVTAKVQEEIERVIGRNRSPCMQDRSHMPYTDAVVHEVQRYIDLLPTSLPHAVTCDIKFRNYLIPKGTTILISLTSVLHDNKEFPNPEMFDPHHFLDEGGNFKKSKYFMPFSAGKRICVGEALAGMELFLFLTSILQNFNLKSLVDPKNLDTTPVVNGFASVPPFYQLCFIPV

Q: For `COc1cc(F)cc([C@@H](CO)NC(=O)[C@@H](C)N2Cc3ccc(-c4nc(NC5CCOCC5)ncc4F)c(F)c3C2=O)c1` [Embodiment 40], which T/C ([1]; 25 mg/kg, bidx21, po) is on record?
A: 7.2%

Q: And the “Initial weight (D0)” value ([1]; 25 mg/kg, bidx21, po)?
A: 19.5 g

Q: What about the “Terminal weight (D21)” value ([1]; 25 mg/kg, bidx21, po) of the same molecule?
A: 21.0 g

Q: What about the Initial tumor volume ([1]; 25 mg/kg, bidx21, po) of the same molecule?
A: 97 ± 26 mm^3

Q: What about the Terminal tumor volume ([1]; 25 mg/kg, bidx21, po) of the same molecule?
A: 67 ± 14 mm^3

Q: And the T/C ([1]; 50 mg/kg, qdx21, po)?
A: 23.2%

Q: And the “Initial weight (D0)” value ([1]; 50 mg/kg, qdx21, po)?
A: 21.4 g

Q: And the “Terminal weight (D21)” value ([1]; 50 mg/kg, qdx21, po)?
A: 23.2 g

Q: What about the Initial tumor volume ([1]; 50 mg/kg, qdx21, po) of the same molecule?
A: 98 ± 22 mm^3

Q: And the Terminal tumor volume ([1]; 50 mg/kg, qdx21, po)?
A: 238 ± 130 mm^3

Q: And the “effect on the tumor weight (in words)” value ([1]; dose of 50 mg/kg or 25 mg/kg)?
A: no significant effect on the tumor weight

Q: What about the “tumor growth of Colo-205 transplanted tumor nude mice (in words)” value ([1]; dose of 50 mg/kg or 25 mg/kg) of the same molecule?
A: significantly inhibited the tumor growth

Q: What about the half-life at 1 μM [2] of the same molecule?
A: 73 min

Q: What about the IC50 at 20 min (CYP2C8) of the same molecule?
A: > 10 µM

Q: And the half-life at 1 μM [3]?
A: 14 min

Q: And the “cell proliferation inhibitory activity (in words)” value (Colo-205 cells; Colo-205)?
A: strong cell proliferation inhibitory activity

Q: And the IC50 (Colo-205 cells; Homo sapiens, COLO 205, 72 hours, CCK-8, numeric values, read-out: Colo-205 IC50)?
A: 0.0038 µM

Q: What about the IC50 (CYP1A2) of the same molecule?
A: > 10 µM

Q: And the IC50 (CYP2C19)?
A: > 10 µM

Q: And the IC50 (CYP3A4)?
A: > 10 µM

Q: And the half-life at 1 μM [4]?
A: 13 min

Q: What about the half-life at 1 μM [5] of the same molecule?
A: 14 min

Q: What about the “enzyme inhibitory activity (in words)” value (ERK1/2 kinase) of the same molecule?
A: extremely strong enzyme inhibitory activity

Q: And the IC50 (ERK1/2 kinase; numeric values, read-out: ERK½ IC50)?
A: < 0.001 µM

Q: And the IC50 (CYP2D6)?
A: > 10 µM

Q: What about the “stability of different kinds of liver microsomes (in words)” value [6] of the same molecule?
A: significant advantages
